Measured values as given in patent publication US6114517A, “Methods of modulating tumor necrosis factor α-induced expression of cell adhesion molecules” (Isis Pharmaceuticals Inc., priority 1998, dated 2000).

Key:
Assay type in all cases: cell-based, human
[1] = system: E-selectin; assay: TNF-α-induced E-selectin cell surface expression in HMVEC, flow cytometry; conditions: for time of maximal inhibition of E-selectin induction: following antisense treatment
Description: (§1) Human dermal microvascular cells (HMVEC-d; Clonetics, San Diego, Calif.) were cultivated in endothelial basal media (EBM, Clonetics) supplemented with 10% fetal bovine serum (HyClone, Logan, Utah). Cells were grown in 100 mm petri dishes until 70-80% confluent, then washed with PBS and OPTI-MEM (Life Technologies, Inc., Gaithersburg, Md.). The cells were then incubated in the presence of OPTI-MEM and […] LIPOFECTIN (a 1:1 (w/w) liposome formulation of the cationic lipid N-[1-(2,3-dioleyloxy)propyl]-n,n,n-trimethylammonium chloride (DOTMA), and dioleoyl phosphotidylethanolamine (DOPE) in membrane filtered water (Life Technologies, Gaithersburg, Md.), per 100 nM of oligonucleotide followed by addition of oligonucleotide at the appropriate concentrations.
(§2) The effect of c-raf and Ha-ras antisense oligonucleotide treatment on the induction of E-selectin by TNF-α was examined. HMVEC cells were treated with either the c-raf or Ha-ras antisense compound under dose-response conditions or over time at a single dose level followed by stimulation of E-selectin expression by TNF-α for 5 hours. The cell surface expression of E-selectin was determined by flow cytometry analysis. Following oligonucleotide treatment, cells were detached from the plates and analyzed for surface expression of cell adhesion molecules using a Becton Dickinson (San Jose, Calif.) FACScan. TNF-α and FITC conjugated antibody for E-selectin were obtained from R & D Systems (Minneapolis, Minn.). PE-conjugated antibody for ICAM-1 was obtained from Pharmingen (San Diego, Calif.). VCAM-1 antibody was obtained from Santa Cruz Biotechnology, Santa Cruz, Calif. Cell surface expression was calculated using the mean value of fluorescence intensity using 3,000-5,000 cells stained with the appropriate antibody for each sample and time point. Results are expressed as percentage of control (cell surface expression induced by TNF-α in cells that were not treated with oligonucleotides) based upon mean fluorescence intensity.
The effects of c-raf, Ha-ras, and a E-selectin antisense oligonucleotide on TNF-α-induced E-selectin cell surface expression under kinetic conditions were examined. […] To test this, cells were treated, separately, with antisense oligonucleotides to E-selectin, ICAM-1 and VCAM-1 and allowed to recover prior to TNF-α treatment. […] E-selectin cell surface expression was measured by flow cytometry analysis after 5 hours of TNF-A treatment.

[2] = system: VCAM-1; assay: TNF-α-induced VCAM-1 cell surface expression in HMVEC, flow cytometry; conditions: for Maximum inhibition of induction of VCAM-1 by TNF-α: dose response
Description: as §1
as §2, with “intensity. Basal expression of E-selectin and VCAM-1 is undetectable in the absence of TNF-α whereas a low level of basal expression is detectable for ICAM-1.” for “intensity.”
(§3) TNF-α induction of ICAM-1 and VCAM-1 in cells treated with c-raf and Ha-ras antisense oligonucleotides was also examined to further define the roles of c-raf and Ha-ras in cytokine signaling. Oligonucleotides were tested, using flow cytometry analysis, as described in Example 4. Results are shown in Table 6 (ICAM-1) and Table 7 (VCAM-1).

[3] = system: VCAM-1 mRNA; assay: TNF-α-induced VCAM-1 mRNA, Northern blot; conditions: 48 hrs recovery, TNF-α two to three hours before RNA analysis
Description: (§4) For determination of mRNA levels by Northern blot, total RNA was prepared from cells by the guanidinium isothiocyanate procedure or by the Qiagen RNAEASY method (Qiagen, Santa Clarita, Calif.) at the indicated times after initiation of oligonucleotide treatment. Northern blot analysis was performed as described in Current Protocols in Molecular Biology (Ausubel, F. M., et al., (eds), 1987, Greene Publishing Assoc. and Wiley Interscience, New York). A glyceraldehyde 3-phosphate dehydrogenase (G3PDH) probe was purchased from Clontech (Palo Alto, Calif., Catalog Number 9805-1). RNA was quantified and normalized to G3PDH mRNA levels using a Molecular Dynamic PHOSPHORIMAGER (Sunnyvale, Calif.).
(§5) Northern blot analysis was carried out to examine whether c-raf and Ha-ras antisense oligonucleotides inhibit the induction of cell adhesion molecules at the transcriptional level. Cells were treated with c-raf (ISIS 12854, SEQ ID NO. 2) or Ha-ras (ISIS 15168, SEQ ID NO. 4) antisense oligonucleotides and allowed to recover for 48 hrs. TNF-α was added two to three hours prior to RNA analysis and Northern blotting was performed with probes specific for E-selectin, ICAM-1, and VCAM-1. The probe for E-selectin was obtained by PCR amplification using primers directed to HUMELAM1A (Genbank Accession No. M24736; SEQ ID NO. 18).

[4] = system: E-selectin mRNA; assay: TNF-α-induced E-selectin mRNA, Northern blot; conditions: 48 hrs recovery, TNF-α two to three hours before RNA analysis
Description: as §4, §5

[5] = system: ICAM-1 mRNA; assay: TNF-α-induced ICAM-1 mRNA, Northern blot; conditions: 48 hrs recovery, TNF-α two to three hours before RNA analysis
Description: as §4, §5

[6] = system: ICAM-1; assay: TNF-α-induced ICAM-1 cell surface expression in HMVEC, flow cytometry; conditions: for maximal inhibition of induction of ICAM-1 by TNF-α: dose response
Description: as §1
as §2, with “intensity. Basal expression of E-selectin and VCAM-1 is undetectable in the absence of TNF-α whereas a low level of basal expression is detectable for ICAM-1.” for “intensity.”
as §3

[7] = 25 nM, TNF-α for 5 hours, % of control
[8] = 75 nM, TNF-α for 5 hours, % of control
[9] = 150 nM, TNF-α for 5 hours, % of control
[10] = time course, 12 h/20 h after oligonucleotide treatment, TNF-α 5 hours
[11] = time course, 48 h after oligonucleotide treatment, TNF-α 5 hours
[12] = time course, 72 h after oligonucleotide treatment, TNF-α 5 hours

Q: What does the source list for “ToCoAsGsTsAsAsTsAsGsCsCsCoCoAoCoAoToGoG [ISIS 17552, reference compound]”?
A: % Cell Surface Expression (E-selectin) [1, 7]: 134%; % Cell Surface Expression (E-selectin) [1, 8]: 116%; % Cell Surface Expression (E-selectin) [1, 9]: 116%; effect on E-selectin induction ([1]; dose response, HMVEC): little to no effect; % Cell Surface Expression (E-selectin) [1, 10]: 113%; % Cell Surface Expression (E-selectin) [1, 11]: 116%; % Cell Surface Expression (E-selectin) [1, 12]: 111%; % Cell Surface Expression (VCAM-1) ([2]; 20 nM): 111%; % Cell Surface Expression (VCAM-1) ([2]; 50 nM): 97%; % Cell Surface Inhibition (VCAM-1) ([2]; 50 nM): 3%; % Cell Surface Expression (VCAM-1) ([2]; 100 nM): 85%; % Cell Surface Inhibition (VCAM-1) ([2]; 100 nM): 15%; % mRNA Expression (VCAM-1) [3]: 111%; % mRNA Expression (E-selectin) [4]: 92%; % mRNA Inhibition (E-selectin) [4]: 8%; % mRNA Expression (ICAM-1) [5]: 101%; % Cell Surface Expression (ICAM-1) ([6]; 20 nM): 102%; % Cell Surface Expression (ICAM-1) ([6]; 50 nM): 100%; % Cell Surface Expression (ICAM-1) ([6]; 100 nM): 98%; % Cell Surface Inhibition (ICAM-1) ([6]; 100 nM): 2%

Q: What does the source list for “ToCoCoCoGoCsCsTsGsTsGsAsCsAsToGoCoAoToT [ISIS 12854]”?
A: % Cell Surface Inhibition (E-selectin) ([1]; 25 nM, TNF-α for 5 hours): 63%; % Cell Surface Expression (E-selectin) [1, 7]: 37%; % Cell Surface Inhibition (E-selectin) ([1]; 75 nM, TNF-α for 5 hours): 74%; % Cell Surface Expression (E-selectin) [1, 8]: 26%; % Cell Surface Inhibition (E-selectin) ([1]; 150 nM, TNF-α for 5 hours): 77%; % Cell Surface Expression (E-selectin) [1, 9]: 23%; Maximal inhibition of E-selectin induction ([1]; dose response, HMVEC): approximately 80%; time of maximal inhibition of E-selectin induction [1]: 48 h; % Cell Surface Expression (E-selectin) [1, 10]: 58%; % Cell Surface Inhibition (E-selectin) [1, 10]: 42%; % Cell Surface Expression (E-selectin) [1, 11]: 23%; % Cell Surface Inhibition (E-selectin) [1, 11]: 77%; % Cell Surface Expression (E-selectin) [1, 12]: 24%; % Cell Surface Inhibition (E-selectin) [1, 12]: 76%; % Cell Surface Expression (VCAM-1) ([2]; 20 nM): 46%; % Cell Surface Inhibition (VCAM-1) ([2]; 20 nM): 54%; % Cell Surface Expression (VCAM-1) ([2]; 50 nM): 37%; % Cell Surface Inhibition (VCAM-1) ([2]; 50 nM): 63%; % Cell Surface Expression (VCAM-1) ([2]; 100 nM): 28%; % Cell Surface Inhibition (VCAM-1) ([2]; 100 nM): 72%; Maximum inhibition of induction of VCAM-1 by TNF-α [2]: greater than 70%; % mRNA Expression (VCAM-1) [3]: 35%; % mRNA Inhibition (VCAM-1) [3]: 65%; % mRNA Expression (E-selectin) [4]: 22%; % mRNA Inhibition (E-selectin) [4]: 78%; % mRNA Expression (ICAM-1) [5]: 78%; % mRNA Inhibition (ICAM-1) [5]: 22%; % Cell Surface Expression (ICAM-1) ([6]; 20 nM): 80%; % Cell Surface Inhibition (ICAM-1) ([6]; 20 nM): 20%; % Cell Surface Expression (ICAM-1) ([6]; 50 nM): 62%; % Cell Surface Inhibition (ICAM-1) ([6]; 50 nM): 38%; % Cell Surface Expression (ICAM-1) ([6]; 100 nM): 57%; % Cell Surface Inhibition (ICAM-1) ([6]; 100 nM): 43%; maximal inhibition of induction of ICAM-1 by TNF-α [6]: greater than 40%

Q: “ToCoCsGsTsCsAsTsCsGsCsTsCoCoToCoAoGoGoG [ISIS 15168]” was tested. Which “% Cell Surface Inhibition (E-selectin)” value ([1]; 25 nM, TNF-α for 5 hours) did it give?
A: The value was 28%.

Q: And the “% Cell Surface Expression (E-selectin)” value [1, 7]?
A: The value was 72%.

Q: And the “% Cell Surface Inhibition (E-selectin)” value ([1]; 75 nM, TNF-α for 5 hours)?
A: Its value is 53%.

Q: What about the “% Cell Surface Expression (E-selectin)” value [1, 8] of the same substance?
A: Its value is 47%.

Q: What about the “% Cell Surface Inhibition (E-selectin)” value ([1]; 150 nM, TNF-α for 5 hours) of the same substance?
A: Its value is 59%.

Q: And the “% Cell Surface Expression (E-selectin)” value [1, 9]?
A: Its value is 41%.

Q: What about the “Maximal inhibition of E-selectin induction” value ([1]; dose response, HMVEC) of the same substance?
A: The value was about 60%.

Q: And the “time of maximal inhibition of E-selectin induction” value [1]?
A: Its value is 48 h.

Q: What about the “% Cell Surface Expression (E-selectin)” value [1, 10] of the same substance?
A: Its value is 87%.

Q: And the “% Cell Surface Inhibition (E-selectin)” value [1, 10]?
A: Its value is 13%.

Q: What about the “% Cell Surface Expression (E-selectin)” value [1, 11] of the same substance?
A: The value was 42%.

Q: What about the “% Cell Surface Inhibition (E-selectin)” value [1, 11] of the same substance?
A: The value was 58%.

Q: And the “% Cell Surface Expression (E-selectin)” value [1, 12]?
A: The value was 42%.

Q: What about the “% Cell Surface Inhibition (E-selectin)” value [1, 12] of the same substance?
A: Its value is 58%.

Q: And the “% Cell Surface Expression (VCAM-1)” value ([2]; 20 nM)?
A: The value was 70%.

Q: What about the “% Cell Surface Inhibition (VCAM-1)” value ([2]; 20 nM) of the same substance?
A: The value was 30%.

Q: What about the “% Cell Surface Expression (VCAM-1)” value ([2]; 50 nM) of the same substance?
A: Its value is 51%.

Q: What about the “% Cell Surface Inhibition (VCAM-1)” value ([2]; 50 nM) of the same substance?
A: The value was 49%.

Q: What about the “% Cell Surface Expression (VCAM-1)” value ([2]; 100 nM) of the same substance?
A: Its value is 44%.

Q: And the “% Cell Surface Inhibition (VCAM-1)” value ([2]; 100 nM)?
A: The value was 56%.

Q: And the “Maximum inhibition of induction of VCAM-1 by TNF-α” value [2]?
A: The value was “greater than 50%”.

Q: And the “% mRNA Expression (VCAM-1)” value [3]?
A: The value was 29%.

Q: What about the “% mRNA Inhibition (VCAM-1)” value [3] of the same substance?
A: Its value is 71%.

Q: And the “% mRNA Expression (E-selectin)” value [4]?
A: The value was 13%.

Q: And the “% mRNA Inhibition (E-selectin)” value [4]?
A: The value was 87%.

Q: And the “% mRNA Expression (ICAM-1)” value [5]?
A: Its value is 73%.

Q: And the “% mRNA Inhibition (ICAM-1)” value [5]?
A: The value was 27%.

Q: And the “% Cell Surface Expression (ICAM-1)” value ([6]; 20 nM)?
A: Its value is 81%.

Q: And the “% Cell Surface Inhibition (ICAM-1)” value ([6]; 20 nM)?
A: The value was 19%.

Q: What about the “% Cell Surface Expression (ICAM-1)” value ([6]; 50 nM) of the same substance?
A: The value was 62%.

Q: What about the “% Cell Surface Inhibition (ICAM-1)” value ([6]; 50 nM) of the same substance?
A: The value was 38%.

Q: What about the “% Cell Surface Expression (ICAM-1)” value ([6]; 100 nM) of the same substance?
A: The value was 54%.

Q: And the “% Cell Surface Inhibition (ICAM-1)” value ([6]; 100 nM)?
A: The value was 46%.

Q: And the “maximal inhibition of induction of ICAM-1 by TNF-α” value [6]?
A: Its value is “greater than 40%”.
